Patent US4051237A, “Glycopeptide antibiotics Bu-2231 A and B and process for producing same” (priority 1975, dated 1977)
≈ marks a conversion by molar mass, not a printed value.

What was measured:
Assay in all cases: MIC by two-fold agar dilution
Assay type in all cases: cell-based
E. coli Juhl A15119 = conditions: Mueller-Hinton agar, unit assumed
E. coli K-12 A9632 = conditions: Mueller-Hinton agar, unit assumed
E. coli A20665 = conditions: Mueller-Hinton agar, unit assumed
E. coli A20683 = conditions: Mueller-Hinton agar, unit assumed
E. cloacae A21006 = conditions: Mueller-Hinton agar, unit assumed
K. pneumoniae D11 = conditions: Mueller-Hinton agar, unit assumed
K. pneumoniae A20680 = conditions: Mueller-Hinton agar, unit assumed
P. vulgaris A9436 = conditions: Mueller-Hinton agar, unit assumed
P morganii A9553 = conditions: Mueller-Hinton agar, unit assumed
P. mirabilis A9554 = conditions: Mueller-Hinton agar, unit assumed
P. rettgeri A15167 = conditions: Mueller-Hinton agar, unit assumed
P. stuartii A20734 = conditions: Mueller-Hinton agar, unit assumed
S. marcescens A20019 = conditions: Mueller-Hinton agar, unit assumed
S. marcescens A20333 = conditions: Mueller-Hinton agar, unit assumed
S. marcescens A21235 = conditions: Mueller-Hinton agar, unit assumed
P. aeruginosa A 9923 = conditions: Mueller-Hinton agar, unit assumed
P. aeruginosa H9, D113 = conditions: Mueller-Hinton agar, unit assumed
P. aeruginosa A20741 = conditions: Mueller-Hinton agar, unit assumed
S. aureus Smith A9537 = conditions: Mueller-Hinton agar, unit assumed
S. aureus #193 = conditions: Mueller-Hinton agar, unit assumed
S. aureus A20239 = conditions: Mueller-Hinton agar, unit assumed
S. aureus BX-1633,A9606 = conditions: Mueller-Hinton agar, unit assumed
S. lutea PCI-1001 = conditions: Mueller-Hinton agar, unit assumed
M. flavus D12 = conditions: Mueller-Hinton agar, unit assumed
B. sphaericus #122 = conditions: Mueller-Hinton agar, unit assumed
B. subtilis PCI-219 = conditions: Mueller-Hinton agar, unit assumed
Mycobacterium 607, D87 = conditions: Medium #1001, unit assumed
Mycobacterium 607, D46 = conditions: Medium #1001, unit assumed
Mycobacterium 607, D47 = conditions: Medium #1001, unit assumed
Mycobacterium phlei, D88 = conditions: Medium #1001, unit assumed
C. albicans IAM 4888 = conditions: Ca-1 C. albicans IAM 4888; sabouraud agar; unit assumed
C. albicans Nystatin-R = conditions: Ca-2 C. albicans Nystatin-R; sabouraud agar; unit assumed
[1] = test system: C. albicans #520 Yale A9540; conditions: Ca-4 C. albicans #520 Yale A9540; sabouraud agar; unit assumed
C. krusei IAM 4489 = conditions: Ck-1 C. krusei IAM 4489; sabouraud agar; unit assumed
C. krusei #96 A15052 = conditions: Ck-2 C. krusei #96 A15052; sabouraud agar; unit assumed
C. neoformans (Cn-1) = conditions: Cn-1 C. neoformans; sabouraud agar; unit assumed
S. cerevisiae ATCC 9763 = conditions: Sc-1 S. cerevisiae ATCC 9763; sabouraud agar; unit assumed
S. cerevisiae IAM 4009 = conditions: Sc-2 S. cerevisiae IAM 4009; sabouraud agar; unit assumed
A. fumigatus IAM 2530 = conditions: Af-1 A. fumigatus IAM 2530; sabouraud agar; unit assumed
Hormodendrum sp. = conditions: Hy-1 Hormodendrum sp.; sabouraud agar; unit assumed
Sporotrichum sp. = conditions: Sy-1 Sporotrichum sp.; sabouraud agar; unit assumed
Verticillium sp. = conditions: Vx-1 Verticillium sp.; sabouraud agar; unit assumed
Mucor sp. = conditions: My-1 Mucor sp.; sabouraud agar; unit assumed
P. citrinum IAM 7008 = conditions: Pt-1 P. citrinum IAM 7008; sabouraud agar; unit assumed
T. asteroides = conditions: Ta-1 T. asteroides; sabouraud agar; unit assumed
T. rubrum D-55 = conditions: Tr-1 T. rubrum D-55; sabouraud agar; unit assumed

## Cc1c(N)nc([C@H](CC(N)=O)NC[C@@H](N)C(N)=O)nc1C(=O)N[C@H](C(=O)N[C@H](C)[C@@H](O)CC(=O)N[C@@H](C(=O)NC(O[C@@H]1O[C@@H](C)[C@@H](N)[C@@H](O)[C@H]1O)C(O)c1nc(-c2nc(C(=O)NCCCNCCCCN)cs2)cs1)[C@@H](C)O)C(O[C@@H]1O[C@@H](CO)[C@H](O)[C@@H](O)[C@@H]1O[C@H]1O[C@H](CO)[C@@H](O)[C@@H](OC(N)=O)[C@@H]1O)c1cnc[nH]1 (some centres unmarked) [Bu-2231 B Cu-free]
E. coli Juhl A15119
  MIC: 0.2 µg/mL (≈ 0.125 µM)
E. coli K-12 A9632
  MIC: 0.1 µg/mL (≈ 0.0624 µM)
E. coli A20665
  MIC: 0.05 µg/mL (≈ 0.0312 µM)
E. coli A20683
  MIC: 12.5 µg/mL (≈ 7.79 µM)
E. cloacae A21006
  MIC: 6.3 µg/mL (≈ 3.93 µM)
K. pneumoniae D11
  MIC: 0.025 µg/mL (≈ 0.0156 µM)
K. pneumoniae A20680
  MIC: 25 µg/mL (≈ 15.6 µM)
P. vulgaris A9436
  MIC: 0.2 µg/mL (≈ 0.125 µM)
P morganii A9553
  MIC: 1.6 µg/mL (≈ 0.998 µM)
P. mirabilis A9554
  MIC: 0.2 µg/mL (≈ 0.125 µM)
P. rettgeri A15167
  MIC: 0.8 µg/mL (≈ 0.499 µM)
P. stuartii A20734
  MIC: 0.8 µg/mL (≈ 0.499 µM)
S. marcescens A20019
  MIC: 0.8 µg/mL (≈ 0.499 µM)
S. marcescens A20333
  MIC: 0.8 µg/mL (≈ 0.499 µM)
S. marcescens A21235
  MIC: 1.6 µg/mL (≈ 0.998 µM)
P. aeruginosa A 9923
  MIC: > 100 µg/mL
P. aeruginosa H9, D113
  MIC: > 100 µg/mL
P. aeruginosa A20741
  MIC: 0.2 µg/mL (≈ 0.125 µM)
S. aureus Smith A9537
  MIC: 0.05 µg/mL (≈ 0.0312 µM)
S. aureus #193
  MIC: 0.4 µg/mL (≈ 0.249 µM)
S. aureus A20239
  MIC: 0.8 µg/mL (≈ 0.499 µM)
S. aureus BX-1633,A9606
  MIC: 0.8 µg/mL (≈ 0.499 µM)
S. lutea PCI-1001
  MIC: 0.4 µg/mL (≈ 0.249 µM)
M. flavus D12
  MIC: 0.4 µg/mL (≈ 0.249 µM)
B. sphaericus #122
  MIC: 0.2 µg/mL (≈ 0.125 µM)
B. subtilis PCI-219
  MIC: < 0.0063 µg/mL
Mycobacterium 607, D87
  MIC: 0.1 µg/mL (≈ 0.0624 µM)
Mycobacterium 607, D46
  MIC: 0.1 µg/mL (≈ 0.0624 µM)
Mycobacterium 607, D47
  MIC: 0.05 µg/mL (≈ 0.0312 µM)
Mycobacterium phlei, D88
  MIC: 0.05 µg/mL (≈ 0.0312 µM)
C. albicans IAM 4888
  MIC: 0.8 µg/mL (≈ 0.499 µM)
C. albicans Nystatin-R
  MIC: 0.8 µg/mL (≈ 0.499 µM)
[1]
  MIC: 1.6 µg/mL (≈ 0.998 µM)
C. krusei IAM 4489
  MIC: 0.4 µg/mL (≈ 0.249 µM)
C. krusei #96 A15052
  MIC: 0.4 µg/mL (≈ 0.249 µM)
C. neoformans (Cn-1)
  MIC: 0.2 µg/mL (≈ 0.125 µM)
S. cerevisiae ATCC 9763
  MIC: 0.2 µg/mL (≈ 0.125 µM)
S. cerevisiae IAM 4009
  MIC: 0.2 µg/mL (≈ 0.125 µM)
A. fumigatus IAM 2530
  MIC: 0.4 µg/mL (≈ 0.249 µM)
Hormodendrum sp.
  MIC: 0.2 µg/mL (≈ 0.125 µM)
Sporotrichum sp.
  MIC: 3.1 µg/mL (≈ 1.93 µM)
Verticillium sp.
  MIC: 1.6 µg/mL (≈ 0.998 µM)
Mucor sp.
  MIC: 3.1 µg/mL (≈ 1.93 µM)
P. citrinum IAM 7008
  MIC: 1.6 µg/mL (≈ 0.998 µM)
T. asteroides
  MIC: 0.8 µg/mL (≈ 0.499 µM)
T. rubrum D-55
  MIC: 0.8 µg/mL (≈ 0.499 µM)

## Cc1c(N)nc([C@H](CC(N)=O)NC[C@H](N)C(N)=O)nc1C(=O)N[C@H](C(=O)N[C@H](C)[C@@H](O)CC(=O)N[C@H](C(=O)NC(O[C@@H]1O[C@@H](C)[C@@H](N)[C@@H](O)[C@H]1O)C(O)c1nc(-c2nc(C(=O)NCCCC(N)CC(=O)NCCCNCCCCN)cs2)cs1)[C@@H](C)O)[C@H](O[C@@H]1O[C@@H](CO)[C@@H](O)[C@H](O)[C@@H]1O[C@H]1O[C@H](CO)[C@@H](O)[C@H](OC(N)=O)[C@@H]1O)c1c[nH]cn1 (some centres unmarked) [Bu-2231 A Cu-free]
E. coli Juhl A15119
  MIC: 0.1 µg/mL (≈ 0.0577 µM)
E. coli K-12 A9632
  MIC: 0.05 µg/mL (≈ 0.0289 µM)
E. coli A20665
  MIC: 0.05 µg/mL (≈ 0.0289 µM)
E. coli A20683
  MIC: 6.3 µg/mL (≈ 3.64 µM)
E. cloacae A21006
  MIC: 1.6 µg/mL (≈ 0.924 µM)
K. pneumoniae D11
  MIC: < 0.0063 µg/mL
K. pneumoniae A20680
  MIC: 6.3 µg/mL (≈ 3.64 µM)
P. vulgaris A9436
  MIC: 0.2 µg/mL (≈ 0.115 µM)
P morganii A9553
  MIC: 0.4 µg/mL (≈ 0.231 µM)
P. mirabilis A9554
  MIC: 0.1 µg/mL (≈ 0.0577 µM)
P. rettgeri A15167
  MIC: 0.4 µg/mL (≈ 0.231 µM)
P. stuartii A20734
  MIC: 0.4 µg/mL (≈ 0.231 µM)
S. marcescens A20019
  MIC: 0.4 µg/mL (≈ 0.231 µM)
S. marcescens A20333
  MIC: 0.2 µg/mL (≈ 0.115 µM)
S. marcescens A21235
  MIC: 0.2 µg/mL (≈ 0.115 µM)
P. aeruginosa A 9923
  MIC: 50 µg/mL (≈ 28.9 µM)
P. aeruginosa H9, D113
  MIC: > 100 µg/mL
P. aeruginosa A20741
  MIC: 0.2 µg/mL (≈ 0.115 µM)
S. aureus Smith A9537
  MIC: 0.1 µg/mL (≈ 0.0577 µM)
S. aureus #193
  MIC: 0.1 µg/mL (≈ 0.0577 µM)
S. aureus A20239
  MIC: 0.2 µg/mL (≈ 0.115 µM)
S. aureus BX-1633,A9606
  MIC: 0.2 µg/mL (≈ 0.115 µM)
S. lutea PCI-1001
  MIC: 0.2 µg/mL (≈ 0.115 µM)
M. flavus D12
  MIC: 0.2 µg/mL (≈ 0.115 µM)
B. sphaericus #122
  MIC: < 0.0063 µg/mL
B. subtilis PCI-219
  MIC: < 0.0063 µg/mL
Mycobacterium 607, D87
  MIC: 0.2 µg/mL (≈ 0.115 µM)
Mycobacterium 607, D46
  MIC: 0.1 µg/mL (≈ 0.0577 µM)
Mycobacterium 607, D47
  MIC: 0.1 µg/mL (≈ 0.0577 µM)
Mycobacterium phlei, D88
  MIC: 0.05 µg/mL (≈ 0.0289 µM)
C. albicans IAM 4888
  MIC: 0.8 µg/mL (≈ 0.462 µM)
C. albicans Nystatin-R
  MIC: 0.8 µg/mL (≈ 0.462 µM)
[1]
  MIC: 3.1 µg/mL (≈ 1.79 µM)
C. krusei IAM 4489
  MIC: 0.8 µg/mL (≈ 0.462 µM)
C. krusei #96 A15052
  MIC: 0.8 µg/mL (≈ 0.462 µM)
C. neoformans (Cn-1)
  MIC: 0.4 µg/mL (≈ 0.231 µM)
S. cerevisiae ATCC 9763
  MIC: 0.4 µg/mL (≈ 0.231 µM)
S. cerevisiae IAM 4009
  MIC: 0.4 µg/mL (≈ 0.231 µM)
A. fumigatus IAM 2530
  MIC: 0.8 µg/mL (≈ 0.462 µM)
Hormodendrum sp.
  MIC: 0.8 µg/mL (≈ 0.462 µM)
Sporotrichum sp.
  MIC: 3.1 µg/mL (≈ 1.79 µM)
Verticillium sp.
  MIC: 3.1 µg/mL (≈ 1.79 µM)
Mucor sp.
  MIC: 6.3 µg/mL (≈ 3.64 µM)
P. citrinum IAM 7008
  MIC: 1.6 µg/mL (≈ 0.924 µM)
T. asteroides
  MIC: 3.1 µg/mL (≈ 1.79 µM)
T. rubrum D-55
  MIC: 3.1 µg/mL (≈ 1.79 µM)
